{"source": "patent US11259522B2", "about": "“Control of resistant pests” (priority 2017, dated 2022)", "key": {"[1]": {"system": "Rhipicephalus microplus larvae, susceptible non-resistant field strain (NRFS)", "assay": "Larval packet test (LPT), cattle tick larvae, susceptible strain", "format": "in vivo", "details": "for LC50 (ppm) / LC99 (ppm): NRFS, Probit analysis; for mortality at 10000 ppm: 10,000 ppm; for mortality at 2.5 ppm: 2.500 ppm; for mortality at 5000 ppm: 5,000 ppm", "experimental": "The larval packet test (LPT) is a modification of that first described by Stone and Haydock (1962, Bull. Entomol. Res., 563-578, http://dx.doi.org/10.1017/5000748530004832X) for evaluation of field resistance in cattle tick (Rhipicephalus microplus) larvae.\nThe first LPT assay was conducted to identify the potential range of flavesone acaricidal activity against larvae of a susceptible non-resistant field strain (NRFS) of R. microplus as a reference strain using a wide range of concentrations (1 in 10 in series).\nThe test compound, flavesone, 6-isobutyryl-2,2,4,4-tetramethylcyclohexane-1,3,5-trione, 96.7%, was used. As its volatility/evaporative properties were unknown, the LPT method was modified to incorporate the use of suitably-sized polyethylene plastic sheets to envelop the larval packets, minimizing exposure of the test active to the atmosphere.\nIn addition, the use of the solvent trichloroethylene (TCE) was removed to avoid the time required for evaporation in the preparation of test papers. The test solutions were prepared in olive oil only at the diluent and the papers immediately enveloped in the plastic sheets and sealed with bulldog clips to minimize evaporation.\nA stock solution with a concentration of 100,000 ppm (10%) flavesone was prepared in olive oil as the diluent (1.035 mL flavesone (96.7%) to 8.965 mL olive oil) and then further diluted 1 in 10 in series to also give 10,000 ppm, 1,000 ppm, 100 ppm, 10 ppm and 1 ppm concentration. The negative control was olive oil only. No positive control was included in this experiment. Due to the viscosity of the olive oil, all solutions were prepared using reverse pipetting technique.\nFilter papers (75 mm×85 mm Whatman® No. 541), with grid patterns, were impregnated on ½ of the paper with 225 μL of each solution using a micro-pipette and immediately folded in half, enveloped in polyethylene plastic and sealed with 3 bulldog clips. The impregnated papers were kept at room temperature on aluminium trays for a minimum of 60 minutes to allow for dispersal across the grid pattern of the paper prior to aliquoting of larvae. The packets were prepared in duplicate for each concentration, including the negative control.\nAn 8 dram vial containing approximately 20,000 hatched 7-21 day old NRFS larvae (about 1 g eggs) was opened and set up on a moated tray with a small amount of detergenated water, about 15 to 30 minute before use. Only larvae that migrated to the top of the vial were used in the assay.\nAliquots of approximately 100 larvae were placed into each packet using plastic disposable forceps and the packets resealed and incubated and 27° C. and 85% relative humidity (RH).\nAfter 24 hours, the larval packets were opened and the numbers of dead and live larvae were counted under a magnification lamp. Percentage mortality was calculated and, where applicable, corrected using Abbott's Formula (Abbott, 1925, J. Economic Entomology, 18:256-257): […]\nLC50 and LC99 values were determined by Probit mortality vs log concentration analysis. Probit values were derived from “Transformation of Percentages to Probit's Tables” published by Fisher R. A. and Yates F. (1938).\nThe LPT Assay of Example 1 was repeated using a narrow range of concentrations, 1 in 2 series, of flavesone to determine LC50 and LC99 values against the susceptible NRFS and the multi-resistant Tiaro reference strain.\nThe stock solution of flavesone (100,000 ppm) was diluted 1 in 10 with olive oil (1 mL to 9 mL diluent) to give 10,000 ppm, which was then further diluted 1 in 2 in series (5 mL to 5 mL diluent) to give 5,000 ppm, 2,500 ppm, 1,250 ppm, 625 ppm, 312.5 ppm and 156.25 ppm concentrations. […]"}, "[2]": {"system": "Oryzaephilus surinamensis susceptible strain VOS48", "assay": "Grain protectant bioassay on treated wheat, O. surinamensis susceptible", "format": "in vivo", "details": "for Progeny reduction (%): vs untreated control"}, "[3]": {"details": "Rhipicephalus microplus, 24 h, Example 2"}, "[4]": {"details": "Rhipicephalus microplus, 24 h, Example 3"}, "[5]": {"details": "Rhipicephalus microplus, 48 h, Example 4"}}}
{"smiles": "CC(C)C(=O)C1C(=O)C(C)(C)C(=O)C(C)(C)C1=O", "note": "[Flavesone, 1-isobutyroyl-3,3,5,5-tetramethylcyclohexane-2,4,6-trione]", "values": [{"measurement": "LC50 (ppm)", "setting": "[1]; Example 1, 24 hours", "result": 171, "unit": "ppm"}, {"measurement": "LC99 (ppm)", "setting": "[1]; Example 1, 24 hours", "result": 3346, "unit": "ppm"}, {"measurement": "LC50 (ppm)", "setting": "[1]; Example 2, 24 hours", "result": 690, "unit": "ppm"}, {"measurement": "LC99 (ppm)", "setting": "[1]; Example 2, 24 hours", "result": 1109, "unit": "ppm"}, {"measurement": "LC50 (ppm)", "setting": "[1]; Example 3, 24 hours", "result": 610, "unit": "ppm"}, {"measurement": "LC99 (ppm)", "setting": "[1]; Example 3, 24 hours", "result": 1050, "unit": "ppm"}, {"measurement": "LC50 (ppm)", "setting": "[1]; Example 4, 48 hours", "result": 526, "unit": "ppm"}, {"measurement": "LC99 (ppm)", "setting": "[1]; Example 4, 48 hours", "result": 923, "unit": "ppm"}, {"measurement": "mortality at 1 ppm", "setting": "[1]; Rhipicephalus microplus, 24 h, Example 1, 1 ppm", "result": 0, "unit": "%"}, {"measurement": "mortality at 10 ppm", "setting": "[1]; Rhipicephalus microplus, 24 h, Example 1, 10 ppm", "result": 0.62, "unit": "%"}, {"measurement": "mortality at 100 ppm", "setting": "[1]; Rhipicephalus microplus, 24 h, Example 1, 100 ppm", "result": 1.82, "unit": "%"}, {"measurement": "mortality at 1000 ppm", "setting": "[1]; Rhipicephalus microplus, 24 h, Example 1, 1,000 ppm", "result": 97, "unit": "%"}, {"measurement": "mortality at 10000 ppm", "setting": "[1]; Rhipicephalus microplus, 24 h, Example 1", "result": 100, "unit": "%"}, {"measurement": "mortality at 100000 ppm", "setting": "[1]; Rhipicephalus microplus, 24 h, Example 1, 100,000 ppm", "result": 100, "unit": "%"}, {"measurement": "mortality at 2.5 ppm", "setting": "[1]; [3]", "result": 100, "unit": "%"}, {"measurement": "mortality at 156.25 ppm", "setting": "[1]; Rhipicephalus microplus, 24 h, Example 2, 156.25 ppm", "result": 0, "unit": "%"}, {"measurement": "mortality at 312.5 ppm", "setting": "[1]; [3]", "result": 0, "unit": "%"}, {"measurement": "mortality at 625 ppm", "setting": "[1]; [3]", "result": 11.8, "unit": "%"}, {"measurement": "mortality at 1250 ppm", "setting": "[1]; Rhipicephalus microplus, 24 h, Example 2, 1,250 ppm", "result": 100, "unit": "%"}, {"measurement": "mortality at 5000 ppm", "setting": "[1]; [3]", "result": 100, "unit": "%"}, {"measurement": "mortality at 10000 ppm", "setting": "[1]; [3]", "result": 100, "unit": "%"}, {"measurement": "mortality at 2.5 ppm", "setting": "[1]; [4]", "result": 100, "unit": "%"}, {"measurement": "mortality at 312.5 ppm", "setting": "[1]; [4]", "result": 1.28, "unit": "%"}, {"measurement": "mortality at 625 ppm", "setting": "[1]; [4]", "result": 11.8, "unit": "%"}, {"measurement": "mortality at 1250 ppm", "setting": "[1]; Rhipicephalus microplus, 24 h, Example 3, 1,250 ppm", "result": 100, "unit": "%"}, {"measurement": "mortality at 5000 ppm", "setting": "[1]; [4]", "result": 100, "unit": "%"}, {"measurement": "mortality at 312.5 ppm", "setting": "[1]; [5]", "result": 2.17, "unit": "%"}, {"measurement": "mortality at 625 ppm", "setting": "[1]; [5]", "result": 66.8, "unit": "%"}, {"measurement": "mortality at 1250 ppm", "setting": "[1]; Rhipicephalus microplus, 48 h, Example 4, 1250 ppm", "result": 100, "unit": "%"}, {"measurement": "Adult mortality (%)", "setting": "[2]; 25 mg/kg, 2 weeks, mean ± SE", "result": "22.7 ± 2.4", "unit": "%"}, {"measurement": "Live adult progeny", "setting": "[2]; 25 mg/kg, mean ± SE", "result": "1.3 ± 0.7"}, {"measurement": "Progeny reduction (%)", "setting": "[2]; 25 mg/kg", "result": 99.6, "unit": "%"}, {"measurement": "Adult mortality (%)", "setting": "[2]; 60 mg/kg, 2 weeks, mean ± SE", "result": "91.3 ± 5.9", "unit": "%"}, {"measurement": "Live adult progeny", "setting": "[2]; 60 mg/kg, mean ± SE", "result": "0.0 ± 0.0"}, {"measurement": "Progeny reduction (%)", "setting": "[2]; 60 mg/kg", "result": 100, "unit": "%"}, {"measurement": "mortality at 25 mg/kg", "setting": "[2]; Oryzaephilus surinamensis, 336 h, 25 mg/kg, 2 weeks, mean ± SE, read-out: Adult mortality (%)", "result": 22, "unit": "%"}, {"measurement": "mortality at 60 mg/kg", "setting": "[2]; Oryzaephilus surinamensis, 336 h, 60 mg/kg, 2 weeks, mean ± SE, read-out: Adult mortality (%)", "result": 91, "unit": "%"}]}
